# Source: patent US8318638B2, “Plant activator” (Shiseido Company, Ltd., priority 1999, dated 2012)
# Assays:
# Type in all cases: in vivo
# [1] = test system: strawberry seedlings; test: Plant dormancy preventive test on strawberry
# Method: When strawberry seedlings are exposed directly to low temperature conditions in winter, the seedlings enter dormancy, and growth of the seedlings is stopped. Whether or not the present plant activator exerts the effect of preventing dormancy was evaluated.
# Specific ketol fatty acid (I) aqueous solutions [concentration: 10 μM, 100 μM, and 0 μM (control)] were applied through spraying to strawberry seedlings on August 27 (at day 0), September 3, and September 8. […] In the control group, no flower bud formation was observed.
# At the one hundred and eighth day, percent dormancy (percentage of dormant plants—which are plants in which growth of small leaf buds with markings is not observed 15 days after a marking was applied to the leaf buds—with respect to the entirety of the test plants) was measured. As a result, in the control group, dormancy of the entire plants was observed.
# [2] = test system: Primula melacoides; test: Growth promotion effect on Primula melacoides; settings: 80 μM aqueous solution, five consecutive days then once a week for six weeks; six-and-a-half months after last spraying; FIG. 9
# Method: One-and-a-half months after seeding of Primula melacoides, spraying of an 80 μm specific ketol fatty acid (I) aqueous solution was carried out for five consecutive days. Furthermore, four months after the start of the test, spraying of an 80 μM specific ketol fatty acid (I) aqueous solution was carried out for six weeks (once a week). Bolting was not observed at a nutrition growth stage of the Primula melacoides. Six-and-a-half months after the last spraying, the plant width and the leave size were measured.
# [3] = test system: broad bean; test: Growth promotion effect on broad bean; settings: 50 μm aqueous solution sprayed five consecutive days
# Method: One month after seeding of broad bean, spraying of a 50 μm specific ketol fatty acid (I) aqueous solution was carried out for five consecutive days, and growth of the broad bean (plant width) was observed.
# [4] = test system: morning glory (variety: murasaki); test: Growth promotion effect on morning glory; settings: 100 μm aqueous solution sprayed; measured on the 16th day; N=8; FIG. 1
# Method: Seeds of morning glory (variety: murasaki) (9 g) were subjected to concentrated sulfuric acid treatment for 20 minutes, and then allowed to stand under water flow overnight. Subsequently, the seeds were placed on wet sea sand such that the hila of the seeds were directed upward for 24 hours, to thereby produce roots. The seeds having roots were planted in sea sand at a position 1.5-2.0 cm below the surface of the sand, and then cultured under continuous light irradiation (for about five days).
# The entire plant bodies of the morning glory having leaves produced through this culture were transferred into a culture solution [KNO2 (250 mg), NH4NO2 (250 mg), KH2PO4 (250 mg), MgSO4.7H2O (250 mg), MnSO4.4H2O (1 mg), Fe-citrate n-hydrate (6 mg), H3BO3 (2 mg), CuSO4.5H2O (0.1 mg), ZeSO4.7H2O (0.2 mg), Na2MoO4.2H2O (0.2 mg), and Ca(H2PO4)22H2O (250 mg) in distilled water (1,000 mL)].
# Water or a 100 μm specific ketol fatty acid (I) aqueous solution was sprayed to the cultured morning glory, which was then placed in the dark overnight (for 14 hours). Thereafter, the morning glory was grown under continuous light irradiation at 25° C. for 16 days, and on the 16th day the height of the plant was measured (N=8). The average of the heights of the plants is shown in FIG. 1 [note: “I” shown in FIG. 1 refers to “specific ketol fatty acid (I)”; the same shall apply to the below-described Figs.].
# [5] = test system: Oryza sativa L. (variety: koshihikari); test: Growth controlling effect on Oryza sativa L. seedlings (seed immersion)
# Method: (1) Good-quality seeds of Oryza sativa L. (variety: koshihikari) (200 g) were immersed in water (800 mL) at 10° C. for 13 days. Thereafter, the seeds were equally divided into four groups, and the respective seed groups were immersed in specific ketol fatty acid (I) aqueous solutions (concentration: 0 μM, 1 μM, 10 μM, and 100 μM) (200 mL) at 30° C. for 1.5 days. The immersed seeds were planted in a four-divided seedbed tray, and grown under no light irradiation at 27° C. for three days. Subsequently, the grown seedlings were exposed to the typical outside environment. Six days after the exposure, 18 seedlings were randomly selected from each group, and the heights of the seedlings were measured, and then averaged. […] Subsequently, in consideration of practical handling of seedlings of Oryza sativa L., the effect of application of specific ketol fatty acid (I) was evaluated. […] In order to perform this evaluation, three weeks after the aforementioned light irradiation treatment, seedlings of each group were randomly selected, and the average of the proportions of the second leaves and third leaves was obtained. […] However, unlike the case of promotion of growth of the seedlings, the optimum concentration of the specific ketol fatty acid (I) aqueous solution is 1 μM.
# [6] = test system: cyclamen; test: Growth promotion effect on cyclamen; settings: 50 μm aqueous solution sprayed five consecutive days, four months after seeding; observed for 48 days; FIG. 5
# Method: Four months after seeding of cyclamen, spraying of a 50 μm specific ketol fatty acid (I) aqueous solution was carried out for five consecutive days. […] The plant width and the number of leaves were both increased.
# [7] = test system: digitalis; test: Growth promotion effect on digitalis; settings: 80 μm aqueous solution, five consecutive days then once a week for six weeks; five-and-a-half months after spraying; FIG. 6
# Method: Two weeks after seeding of digitalis, spraying of an 80 μm specific ketol fatty acid (I) aqueous solution was carried out for five consecutive days. Furthermore, three months after the start of the test; spraying of an 80 μm specific ketol fatty acid (I) aqueous solution was carried out for six weeks (once a week). Five-and-a-half months after the six-week spraying, the size of leaves and the plant height were measured.
# [8] = test system: lettuce; test: Growth promotion effect on lettuce; settings: 50 μM aqueous solution sprayed five consecutive days
# Method: One month after seeding of lettuce, spraying of a 50 μM specific ketol fatty acid (I) aqueous solution was carried out for five consecutive days, and growth of the lettuce (plant width) was observed.
compound,measurement,setting,value
"CC/C=C\C/C=C\CC(=O)C(O)CCCCCCCC(=O)O (centres unmarked) [specific ketol fatty acid (I), 9-hydroxy-10-oxo-12(Z),15(Z)-octadecadienoic acid]",formation of flower buds,"[1]; 10 μM and 100 μM aqueous solutions sprayed three times, cultured outdoors","flower bud formation proceeded, and the number of flowers increased"
same,percent dormancy,"[1]; 10 μM and 100 μM sprayed, at the one hundred and eighth day, FIG. 14",dormancy of strawberry was prevented
same,"dormancy preventive effect, low vs high concentration","[1]; 10 μm vs 100 μM, FIG. 14",more significant in the group in which the specific ketol fatty acid (I) of low concentration (10 μm) was applied
same,leave size,[2],increased
same,plant width,[2],increased
same,duration of growth promotion effect,[3],maintained 48 days after the start of the test
same,growth of the broad bean (plant width),"[3]; one month after seeding, FIG. 3",exerts the effect of promoting growth of the broad bean
same,height of the plant,[4],becomes larger
same,optimum concentration of the aqueous solution for controlling growth of the third leaves,"[5]; seed immersion, FIG. 13",1 µM
same,heights of the seedlings (degree of growth promotion),"[5]; seeds immersed in 1 μM, 10 μM, 100 μM solutions at 30° C. for 1.5 days, six days after exposure, 18 seedlings, FIG. 12",commensurate with the application amount
same,growth of the third leaves (proportions of second and third leaves),"[5]; seeds immersed in 1, 10, 100 μM solutions, three weeks after light irradiation treatment, FIG. 13",exerts the effect of controlling growth of the third leaves
same,number of leaves,[6],increased
same,plant width,[6],increased
same,plant height,[7],increased
same,size of leaves,[7],increased
same,duration of growth promotion effect,[8],maintained 48 days after the start of the test
same,growth of the lettuce (plant width),"[8]; one month after seeding, FIG. 2",exerts the effect of promoting growth of the lettuce
